Common to all, as to assay: inhibition of tumour cell growth, NCI panel, 48 h
In assay [1] the test system is 786-0 renal.
Assay [2] has as its system CAKI-1 renal.
Assay [3] deals with HOP-62 NSCLC.
Assay [4] relates to PC-3 prostate.
The subject of assay [5] is SF-539 CNS.
Assay [6] relates to SN12C renal.
The subject of assay [7] is SNB-19 CNS.
Assay [8] concerns SW-620 colon.
Assay [9] concerns CCRF-CEM leukemia.
For assay [10], the system named is RXF 393 renal.

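Cultured in 96-well plates, cells were exposed to test compound for 48 hours across five concentrations. GI50: concentration for 50% inhibition of growth. At the TGI there is no net growth.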 A value given as a limit tells only on which side of the number the result lay.

Turning to `OCc1cc2ccccc2c2c3c(ccc12)OCO3`, the GI50 in assay [1] was 42.3 µM; in assay [2], 29.3 µM; in assay [3], 31.6 µM; in assay [4], 25.4 µM; in [5] it was 23.2 µM; in assay [6], 29.1 µM. For the same molecule, the values for the GI50 in assay [7] and in assay [8] were 35.6 µM and 29 µM, respectively. Further, the TGI in [1] is 203 µM; in [2], 188 µM; in [3] it was 131 µM; in [4], 140 µM; in assay [5], 87 µM; in [6], 141 µM. Besides, the TGI in [7] stood at 286 µM; in assay [8] it was 118 µM.
On to `CCN1CCN(Cc2ccc(NC(=O)c3cccc(C#Cc4cccc5[nH]nc(N)c45)c3)cc2C(F)(F)F)CC1`, for which the GI50 was 0.402 µM in assay [1]; 0.485 µM in assay [2]; 0.778 µM in assay [9]; 1.36 µM in [4]; 0.287 µM in assay [10]; 0.205 µM in [5]. Further, the GI50 in assay [6] was 0.584 µM; in assay [7], 1.07 µM; in assay [8], 0.343 µM. For the same molecule, the TGI in [1] worked out at 1.32 µM; in [2], 1.76 µM; in assay [9], 3.96 µM; in assay [4] it was 3.13 µM; in assay [10], 0.918 µM; in [5] it was 0.709 µM. In addition, the TGI in [6] turned out to be 1.93 µM; in [7] it was 2.3 µM; in [8], 1.59 µM.
Take `COc1cnc2c(c1)C(=O)c1c-2n(CCCN2CCOCC2)c(=O)c2cc(F)ccc12`: the GI50 in assay [1] is 0.254 µM; in assay [9], 0.0853 µM; in assay [3] it was 0.187 µM; in [4] it was 0.369 µM; in assay [10], 0.226 µM; in assay [5], 0.288 µM. The GI50 was 0.32 µM in assay [6], 0.264 µM in [7] and 0.149 µM in assay [8]. The TGI in [1] is 1.2 µM; in assay [9], above 100 µM; in assay [3] it was 0.991 µM; in [4] it was above 100 µM; in assay [10] it was 0.913 µM; in assay [5], 1.08 µM. Besides, the TGI was above 100 µM in assay [6], 7 µM in assay [7] and above 100 µM in [8].
On to `COC([CH2][Hg][n]1cnc2c1c(=O)n(C)c(=O)n2C)CN1C(=O)c2ccccc2S1(=O)=O` (configuration not stated), for which the GI50 in assay [1], in [2], in [3], in assay [4], in assay [10] and in assay [5] was above 100 µM each time. The GI50 in assay [6], in [7] and in [8] was above 100 µM each time. Besides, the TGI in assay [1], in [2], in assay [3], in assay [4], in assay [10] and in [5] was above 100 µM each time. Further, the TGI in assay [6], in [7] and in assay [8] was above 100 µM each time.
As for `CCN1/C(=C\c2cc[n+](CC)c3ccccc23)C=Cc2ccccc21`, the GI50 in assay [1] was 0.465 µM; in assay [2], 4.71 µM; in assay [9], 0.0859 µM; in [4] it was 0.117 µM; in assay [10], 0.333 µM; in assay [5], 0.22 µM. Also, the values for the GI50 in assay [6], in [7] and in assay [8] were 0.233 µM, 0.163 µM and 0.23 µM, respectively. For the same molecule, the TGI was determined as 12 µM in assay [1]; 22.5 µM in [2]; 13.4 µM in assay [9]; 1.85 µM in assay [4]; 4.27 µM in [10]; 11 µM in assay [5]. Further, the TGI in assay [6] turned out to be 11.9 µM; in [7], 11.7 µM; in assay [8], 7.81 µM.
Consider `CO/C(=N\N=C\c1ccc(C(F)(F)F)cc1)c1ccncc1`, for which the TGI in [1], in assay [2], in assay [9], in [3], in assay [4] and in [10] was above 10 µM in each case. The TGI in assay [6], in [7] and in assay [8] was above 10 µM in each case.
Take `COC(=O)CC[N+]1=CCC(c2ccccc2)(c2ccccc2)O1`: the TGI in assay [1], in assay [2], in assay [3], in [4], in assay [10] and in [5] was above 100 µM throughout. Besides, the TGI in [6], in assay [7] and in assay [8] was above 100 µM throughout.
For `Cc1ccc2c(C)c3c(ccc4ccccc43)c[n+]2c1`, the GI50 in [1] is 20.1 µM; in assay [2], 40.5 µM; in [9], 8.89 µM; in assay [3], 5.93 µM; in assay [4], 7.15 µM; in assay [10] it was 41.5 µM. The GI50 in assay [5] was 13.8 µM; in [6] it was 2.18 µM; in assay [7], 2.84 µM. The TGI in assay [1] was above 100 µM; in [2], above 100 µM; in assay [9], 38.9 µM; in [3], 24.7 µM; in assay [4] it was 41 µM; in [10] it was above 100 µM. Besides, the TGI is 28.2 µM in assay [5], 18.2 µM in assay [6] and 24.7 µM in [7].
With `COc1cc2cc(OC)c3cc4c(cc3c2c(OC)c1OC)OCO4`, the TGI was above 90.4 µM in assay [1]; above 100 µM in [2]; 37.9 µM in [9]; above 100 µM in [3]; above 100 µM in assay [10]; above 55.4 µM in assay [5]. For the same molecule, the TGI is above 100 µM in assay [6], above 100 µM in assay [7] and 43.8 µM in [8].
On to `Cc1nc2c(ccc3ncccc32)[nH]1`, for which the TGI in assay [1], in [2], in [9], in assay [3], in assay [10] and in [5] was above 100 µM throughout. The TGI in assay [6], in [7] and in assay [8] was above 100 µM in each case.

The values are drawn from PubChem BioAssay (NCI).
